# Results published in patent US10000469B2, “Heat shock protein 70 (hsp-70) receptor ligands” (Duke University, priority 2014, dated 2018).
# Legend:
# Type in all cases: binding
# [1] = target: T1, Hsp70i, Hsc70, Grp78, Grp75, Hsp90 (Homo sapiens, UniProt P0DMV8); test: Elution of HEK 293T cell lysate proteins from the ATP resin (silver stain, Western blot); conditions: few non-specific eluted proteins
# T1 construct: endogenous in cells; host or cells: HEK 293T
# Procedure: (§1) FLECS Screen: A pEGFP-tagged Hsp70i was (plasmid 15215, Addgene, Cambridge, Mass.) used in the FLECS assay and was originally cloned according to [Zeng et al. (2004). Hsp70 dynamics in vivo: effect of heat shock and protein aggregation. Journal of cell science 117, 4991-5000]. ATP used in the assay was purchased from Sigma (St. Louis, Mo.) and a 200 mM stock was prepared with low salt buffer (150 mM NaCl, 25 mM Tris, pH 7.5, 60 mM MgCl2). The γ-phosphate ATP sepharose was synthesized as previously described and stored in low salt buffer [Haystead et al. (1993). Gamma-phosphate-linked ATP-sepharose for the affinity purification of protein kinases. Rapid purification to homogeneity of skeletal muscle mitogen-activated protein kinase kinase. European journal of biochemistry/FEBS 214, 459-467]. FuGENE 6 transfection reagent (Roche, Mannheim, Germany) was used for transfection of GFP-Hsp70i into HEK 293T cells, following the manufacturer protocol. The transfection ensued for 48 hours, upon which time the cells were harvested and lysed in cell lysis buffer (150 mM NaCl, 50 mM Tris, pH 7.5, 1% Triton X-100, 1 mM EDTA, 1 mM DTT, and 1 tablet Complete Mini protease inhibitor (Roche)). Cell lysates were stored at −80° C. until further use. Upon binding the resin lysates were washed 3× with high stringency wash buffer (1 M NaCl, 25 mM Tris, pH 7.5, 60 mM MgCl2, 1 mM DTT) and 3× with low stringency wash buffer (150 mM NaCl, 25 mM Tris, pH 7.5, 60 mM MgCl2, 1 mM DTT). Next the lysates were transferred to 0.2 μm PVDF filter 96-well plate (Corning, Corning, N.Y.) sitting on top of a black flat-bottomed 96-well catch plate (Corning). […]
# (§2) HS-72 specifically targets Hsp70i over other members of the Hsp70 superfamily. […] To more thoroughly determine the specificity of HS-72 for Hsp70i, the HEK 293T eluates were also analyzed for other Hsp70 family members Hsc70, Grp78, and Grp75, as well as Hsp90 by Western blot. […] The linker on the resin was cleaved using sodium dithionite and the samples were subjected to SDS-PAGE and analyzed by Western blot, silver stain, and mass spectrometry. […]
# [2] = tested on: Hsp70i, Hsc70, Grp78, Grp75, Hsp90; test: as above; conditions: Western blot
# Procedure: as §1, §2
# [3] = target: T2, GFP-Hsp70i (Homo sapiens, UniProt P0DMV8); test: FLECS elution of GFP-Hsp70i from γ-phosphate-linked ATP resin; conditions: compared with HS-71
# T2 construct: host or cells: HEK 293T
# T2 sequence (P0DMV8 whole entry): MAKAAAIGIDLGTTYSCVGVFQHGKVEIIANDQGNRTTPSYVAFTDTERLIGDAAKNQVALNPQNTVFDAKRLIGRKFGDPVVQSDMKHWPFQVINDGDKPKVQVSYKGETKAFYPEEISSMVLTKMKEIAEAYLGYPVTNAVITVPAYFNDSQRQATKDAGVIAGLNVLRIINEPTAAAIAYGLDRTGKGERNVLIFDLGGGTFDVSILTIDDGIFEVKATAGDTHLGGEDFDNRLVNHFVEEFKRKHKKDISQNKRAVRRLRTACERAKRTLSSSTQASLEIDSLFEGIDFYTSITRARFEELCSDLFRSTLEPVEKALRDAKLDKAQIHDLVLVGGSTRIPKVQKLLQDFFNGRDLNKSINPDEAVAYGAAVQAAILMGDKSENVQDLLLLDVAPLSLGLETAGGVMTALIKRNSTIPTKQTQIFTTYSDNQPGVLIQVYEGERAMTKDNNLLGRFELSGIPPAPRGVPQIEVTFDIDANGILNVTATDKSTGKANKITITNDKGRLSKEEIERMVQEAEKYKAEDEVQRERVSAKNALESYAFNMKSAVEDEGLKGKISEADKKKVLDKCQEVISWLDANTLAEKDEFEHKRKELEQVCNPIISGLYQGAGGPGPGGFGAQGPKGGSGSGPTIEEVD
# Procedure: as §1, with “DTT).” for “DTT). Next the lysates were transferred to 0.2 μm PVDF filter 96-well plate (Corning, Corning, N.Y.) sitting on top of a black flat-bottomed 96-well catch plate (Corning).”
# Assembly of a focused library, consisting of 3379 purine like compounds, was described previously [Carlson et al. (2013). Fluorescence Linked Enzyme Chemoproteomic Strategy for Discovery of a Potent and Selective DAPK1 and ZIPK Inhibitor. […] The lysates were eluted from the filter plate onto a catch plate by centrifugation and the fluorescence of the eluates was measured. […] Next, the presence of GFP-Hsp70i in the eluates from the 197 primary hits was determined by Western blot. […]
# T1 sequence (P0DMV8 2-641): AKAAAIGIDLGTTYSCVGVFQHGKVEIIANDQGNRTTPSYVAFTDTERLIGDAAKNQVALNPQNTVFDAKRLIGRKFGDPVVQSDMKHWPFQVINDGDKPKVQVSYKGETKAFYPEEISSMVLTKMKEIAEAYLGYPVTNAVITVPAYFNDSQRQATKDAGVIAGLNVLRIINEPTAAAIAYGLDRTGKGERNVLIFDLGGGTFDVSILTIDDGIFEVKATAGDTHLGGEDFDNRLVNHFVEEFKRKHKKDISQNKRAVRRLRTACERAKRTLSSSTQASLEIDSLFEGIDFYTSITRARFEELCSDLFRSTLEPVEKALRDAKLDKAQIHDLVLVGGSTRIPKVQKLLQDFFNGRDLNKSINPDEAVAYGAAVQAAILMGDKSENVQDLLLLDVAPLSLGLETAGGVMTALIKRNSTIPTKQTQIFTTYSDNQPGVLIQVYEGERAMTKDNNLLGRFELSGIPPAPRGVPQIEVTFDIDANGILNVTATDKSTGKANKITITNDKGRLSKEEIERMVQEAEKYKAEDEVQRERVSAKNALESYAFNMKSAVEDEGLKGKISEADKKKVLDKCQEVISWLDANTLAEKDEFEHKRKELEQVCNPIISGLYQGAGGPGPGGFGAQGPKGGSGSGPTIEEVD
smiles,measurement,setting,value
"CCCn1c(NC(=O)[C@H]2CCCN(c3cnccn3)C2)nc2ccccc21 [HS-72, (S)—N-(1-propyl-1H-benzo[d]imidazol-2-yl)-1-(pyrazin-2-yl)piperidine-3-carboxamide]",elution of Hsp70 from ATP resin,[1],elutes Hsp70
same,Hsp70 family members and Hsp90 eluted from the ATP resin,[2],only inducible Hsp70 was eluted
same,"elution of GFP-Hsp70 from the ATP resin, S vs. R enantiomer",[3],more effective
